Assay results published in publication PMC7827406, “Structure–Activity Relationship (SAR) Study of Spautin-1 to Entail the Discovery of Novel NEK4 Inhibitors” (International Journal of Molecular Sciences, 2021).
Where two headings read alike, the source gives them in different places.

Legend:
Experiment in all cases: biochemical
Design in all cases: Eurofins KinaseProfiler full panel at Km ATP, residual kinase activity (%) relative to DMSO
Abl (H396P) (h) = biological target: T1, Abl (H396P) (h) (Homo sapiens, UniProt P00519, H396P)
T1 construct: gene ABL1
Outline: (§1)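 Two 10 µM single-concentration screens were run: a competition-binding screen, in which DNA-tagged kinase bound to immobilized ligands was quantified by qPCR, and a radiometric activity panel at Km ATP. Each is expressed as residual kinase activity (%).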

IR(h) = biological target: T2, IR(h) (Homo sapiens, UniProt P06213)
T2 construct: gene INSR
Outline: as §1

Hck(h) = Hck(h) (Homo sapiens, UniProt P08631)
Outline: as §1

Plk4(h) = biological target: T3, Plk4(h) (Homo sapiens, UniProt O00444)
T3 sequence (O00444 1-970): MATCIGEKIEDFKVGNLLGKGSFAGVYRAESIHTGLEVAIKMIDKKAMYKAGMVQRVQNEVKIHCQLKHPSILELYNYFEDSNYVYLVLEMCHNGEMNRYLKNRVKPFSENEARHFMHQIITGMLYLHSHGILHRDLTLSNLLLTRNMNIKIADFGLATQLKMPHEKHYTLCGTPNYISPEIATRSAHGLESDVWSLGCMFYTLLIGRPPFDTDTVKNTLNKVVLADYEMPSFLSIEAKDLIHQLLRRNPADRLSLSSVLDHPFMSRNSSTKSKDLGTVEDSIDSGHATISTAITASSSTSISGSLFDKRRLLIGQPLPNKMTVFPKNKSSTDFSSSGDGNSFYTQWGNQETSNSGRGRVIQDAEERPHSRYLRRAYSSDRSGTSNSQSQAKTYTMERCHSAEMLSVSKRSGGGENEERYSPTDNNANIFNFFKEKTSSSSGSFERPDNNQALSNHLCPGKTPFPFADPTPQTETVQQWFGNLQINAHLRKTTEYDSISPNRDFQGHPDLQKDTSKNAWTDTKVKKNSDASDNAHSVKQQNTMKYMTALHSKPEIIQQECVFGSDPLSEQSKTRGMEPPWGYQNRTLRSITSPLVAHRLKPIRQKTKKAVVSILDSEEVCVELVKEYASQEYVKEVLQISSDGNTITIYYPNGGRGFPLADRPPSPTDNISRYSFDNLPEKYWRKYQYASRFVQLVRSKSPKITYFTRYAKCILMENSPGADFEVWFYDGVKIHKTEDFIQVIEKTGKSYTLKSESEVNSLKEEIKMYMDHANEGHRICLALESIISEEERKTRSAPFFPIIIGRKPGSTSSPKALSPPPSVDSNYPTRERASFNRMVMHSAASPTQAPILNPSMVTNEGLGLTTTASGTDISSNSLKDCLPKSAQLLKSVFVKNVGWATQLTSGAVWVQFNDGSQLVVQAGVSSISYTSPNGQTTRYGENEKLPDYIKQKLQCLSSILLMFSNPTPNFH
Outline: as §1

EphA1(h) = biological target: T4, EphA1(h) (Homo sapiens, UniProt P21709)
T4 sequence (P21709 1-976): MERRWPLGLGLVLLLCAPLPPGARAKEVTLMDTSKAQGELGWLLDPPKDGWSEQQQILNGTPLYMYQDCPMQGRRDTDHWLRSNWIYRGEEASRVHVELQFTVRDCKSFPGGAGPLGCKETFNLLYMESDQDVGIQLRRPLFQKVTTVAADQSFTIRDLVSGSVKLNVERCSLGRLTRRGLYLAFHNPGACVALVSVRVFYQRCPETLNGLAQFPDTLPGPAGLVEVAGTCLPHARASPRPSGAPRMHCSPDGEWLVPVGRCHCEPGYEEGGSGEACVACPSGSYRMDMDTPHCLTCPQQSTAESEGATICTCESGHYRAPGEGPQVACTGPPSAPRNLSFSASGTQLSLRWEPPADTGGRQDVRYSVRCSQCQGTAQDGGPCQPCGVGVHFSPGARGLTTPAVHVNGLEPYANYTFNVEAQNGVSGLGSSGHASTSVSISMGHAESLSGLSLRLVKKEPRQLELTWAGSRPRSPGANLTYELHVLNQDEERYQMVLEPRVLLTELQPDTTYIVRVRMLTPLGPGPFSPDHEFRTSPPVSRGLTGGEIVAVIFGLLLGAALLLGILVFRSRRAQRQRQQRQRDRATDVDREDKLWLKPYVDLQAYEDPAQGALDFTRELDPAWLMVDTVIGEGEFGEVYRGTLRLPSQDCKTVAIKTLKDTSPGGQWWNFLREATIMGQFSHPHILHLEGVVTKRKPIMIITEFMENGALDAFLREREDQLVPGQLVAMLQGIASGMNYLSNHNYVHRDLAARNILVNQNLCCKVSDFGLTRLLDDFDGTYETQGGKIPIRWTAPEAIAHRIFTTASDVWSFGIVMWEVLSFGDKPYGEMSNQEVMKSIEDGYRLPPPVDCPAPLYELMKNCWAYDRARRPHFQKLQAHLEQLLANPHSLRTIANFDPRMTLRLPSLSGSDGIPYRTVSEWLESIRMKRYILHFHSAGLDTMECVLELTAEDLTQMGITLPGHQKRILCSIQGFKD
Outline: as §1

DYRK1A(h) = DYRK1A(h) (Homo sapiens, UniProt Q13627)
Outline: as §1

[1] = read-out: Residual activity (%) Spautin-1 5aa
[2] = read-out: Residual activity (%) 5as
[3] = read-out: Residual activity (%) 5at
[4] = read-out: Residual activity (%) 5ay

T2 sequence (P06213 whole entry): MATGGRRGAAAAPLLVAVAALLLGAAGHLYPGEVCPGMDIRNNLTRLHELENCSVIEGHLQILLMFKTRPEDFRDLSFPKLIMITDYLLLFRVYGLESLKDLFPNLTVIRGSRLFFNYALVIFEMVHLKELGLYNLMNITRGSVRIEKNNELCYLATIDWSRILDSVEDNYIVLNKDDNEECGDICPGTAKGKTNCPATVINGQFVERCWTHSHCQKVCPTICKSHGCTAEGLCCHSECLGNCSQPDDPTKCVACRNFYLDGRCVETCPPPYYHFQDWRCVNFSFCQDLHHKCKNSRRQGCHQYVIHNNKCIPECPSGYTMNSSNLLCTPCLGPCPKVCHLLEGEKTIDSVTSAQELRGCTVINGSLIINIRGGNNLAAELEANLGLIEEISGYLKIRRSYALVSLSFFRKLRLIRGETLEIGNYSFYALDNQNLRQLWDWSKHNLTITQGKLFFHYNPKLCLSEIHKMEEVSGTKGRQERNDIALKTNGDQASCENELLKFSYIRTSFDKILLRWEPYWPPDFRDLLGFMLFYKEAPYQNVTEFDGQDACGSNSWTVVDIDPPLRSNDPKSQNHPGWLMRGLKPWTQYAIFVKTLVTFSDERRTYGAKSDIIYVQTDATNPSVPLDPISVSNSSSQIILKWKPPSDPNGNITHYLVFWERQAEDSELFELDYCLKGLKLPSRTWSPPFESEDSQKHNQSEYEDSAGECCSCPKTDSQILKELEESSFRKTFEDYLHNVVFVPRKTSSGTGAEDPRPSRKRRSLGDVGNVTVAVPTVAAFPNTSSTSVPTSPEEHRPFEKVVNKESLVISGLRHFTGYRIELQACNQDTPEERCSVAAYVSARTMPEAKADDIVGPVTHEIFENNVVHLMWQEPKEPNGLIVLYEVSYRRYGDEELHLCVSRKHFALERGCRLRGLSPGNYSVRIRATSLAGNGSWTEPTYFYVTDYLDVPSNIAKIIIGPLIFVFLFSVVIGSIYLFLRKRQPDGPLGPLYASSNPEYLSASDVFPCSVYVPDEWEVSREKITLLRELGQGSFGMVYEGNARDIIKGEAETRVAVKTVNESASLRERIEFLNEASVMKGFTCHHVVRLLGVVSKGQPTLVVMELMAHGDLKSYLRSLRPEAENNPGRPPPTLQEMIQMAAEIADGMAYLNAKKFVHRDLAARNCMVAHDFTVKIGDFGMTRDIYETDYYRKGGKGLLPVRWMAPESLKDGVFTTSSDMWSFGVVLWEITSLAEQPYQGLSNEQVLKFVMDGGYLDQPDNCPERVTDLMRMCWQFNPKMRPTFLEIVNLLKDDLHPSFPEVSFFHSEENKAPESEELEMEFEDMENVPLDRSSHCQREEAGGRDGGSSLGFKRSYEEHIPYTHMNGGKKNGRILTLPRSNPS
Sequence of Hck(h) (P08631 whole entry): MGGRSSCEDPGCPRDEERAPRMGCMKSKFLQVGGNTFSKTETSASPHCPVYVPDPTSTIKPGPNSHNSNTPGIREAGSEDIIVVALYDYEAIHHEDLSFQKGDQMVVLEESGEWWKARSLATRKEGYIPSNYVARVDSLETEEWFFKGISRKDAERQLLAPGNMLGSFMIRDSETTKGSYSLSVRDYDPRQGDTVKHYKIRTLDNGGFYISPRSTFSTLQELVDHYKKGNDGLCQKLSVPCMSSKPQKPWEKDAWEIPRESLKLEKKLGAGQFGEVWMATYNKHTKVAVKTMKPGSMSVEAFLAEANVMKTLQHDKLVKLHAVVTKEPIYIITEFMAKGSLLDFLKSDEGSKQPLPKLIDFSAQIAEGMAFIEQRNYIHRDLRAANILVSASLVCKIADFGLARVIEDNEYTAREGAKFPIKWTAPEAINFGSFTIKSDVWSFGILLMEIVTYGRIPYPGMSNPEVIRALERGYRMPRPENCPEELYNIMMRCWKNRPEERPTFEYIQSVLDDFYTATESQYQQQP

Work on Fc1ccc(CNc2ncnc3ccc(F)cc23)cc1 [5aa, 6-Fluoro-N-(4-fluorobenzyl)-4-Quinazolinamine] yielded a remaining activity at 10 µM (Abl (H396P) (h); [1]) of 95%, a remaining activity at 10 µM (IR(h); [1]) of 73% and a remaining activity at 10 µM (Hck(h); [1]) of 72%. For the same molecule, the remaining activity at 10 µM (Plk4(h); [1]) was 91%, the remaining activity at 10 µM (EphA1(h); [1]) was 93% and the remaining activity at 10 µM (DYRK1A(h); [1]) was 74%.

With Fc1ccc(CCNc2ncnc3ccc(F)cc23)cc1 [5as, 6-Fluoro-N-[2-(4-Fluorophenyl)Ethyl]-4-Quinazolinamine] the remaining activity at 10 µM (Abl (H396P) (h); [2]) was 86%, the remaining activity at 10 µM (IR(h); [2]) was 88% and the remaining activity at 10 µM (Hck(h); [2]) was 74%. The remaining activity at 10 µM (Plk4(h); [2]) was 80%, the remaining activity at 10 µM (EphA1(h); [2]) was 66% and the remaining activity at 10 µM (DYRK1A(h); [2]) was 68%.

With Fc1ccc2ncnc(NCCc3ccc(Cl)cc3)c2c1 [5at, N-[2-(4-Chlorophenyl)Ethyl]-6-Fluoro-4-Quinazolinamine] the remaining activity at 10 µM (Abl (H396P) (h); [3]) was 80%, the remaining activity at 10 µM (IR(h); [3]) was 70% and the remaining activity at 10 µM (Hck(h); [3]) was 62%. The remaining activity at 10 µM (Plk4(h); [3]) was 78%, the remaining activity at 10 µM (EphA1(h); [3]) was 74% and the remaining activity at 10 µM (DYRK1A(h); [3]) was 63%.

COc1ccc2ncnc(Nc3cccc(F)c3)c2c1 [5ay, N-(3-Fluorophenyl)-6-Methoxy-4-Quinazolinamine] showed a remaining activity at 10 µM (Abl (H396P) (h); [4]) of 76%, a remaining activity at 10 µM (IR(h); [4]) of 98% and a remaining activity at 10 µM (Hck(h); [4]) of 64%. For the same molecule, the remaining activity at 10 µM (Plk4(h); [4]) was 87%, the remaining activity at 10 µM (EphA1(h); [4]) was 61% and the remaining activity at 10 µM (DYRK1A(h); [4]) was 29%.
